# Test results: US4490369A, “Benzazepine derivatives, their pharmaceutical compositions and method of use” (Dr. Karl Thomae Gesellschaft mit beschrankter Haftung, priority 1981, dated 1984)
# Structures can show the parent of a compound that is named as a salt.
# Key:
# rats = test: Effect on heart rate in rats; assay type: in vivo, rat; conditions: anesthetized rats
# Description: The effect of the test substances on heart rate was investigated in two rats with an average weight of 250 to 300 gm for each dose. The rats were anesthetized with pentobarbital (50 mg/kg i.p. and 20 mg/kg s.c.). The test substances were injected in aqueous solution into the jugular vein (0.1 ml/100 gm). The blood pressure was measured using a cannula inserted in a carotid artery and the heart rate was recorded from an ECG (IInd or IIIrd reading) obtained using needle electrodes. The heart rate of the animals in the control period was between 350 and 400 beats per minute (b/min).
# cats = test: Effect on heart rate in cats; assay type: in vivo, cat; conditions: anesthetized cats, 1.0 mg/kg i.v.; for Half-life: heart rate effect
# Description: The cats were anesthetized with Nembutal (30 mg/kg i.p.) and chloralose urethane (40 mg/ml of chloralose+200 mg/ml of urethane, as required). The compound to be tested was injected in aqueous solution into the vena saphena or into the duodenum. The heart rate was recorded before and after the admiministration of the substance by means of a Grass tachograph from the electrocardiagram (taken from and chest wall) on a Grass polygraph.
# Acute toxicity in mice = conditions: mouse, in vivo, observation period 14 days
# Description: The acute toxicity of the test compound was determined in mice (observationperiod: 14 days) after intravenous and peroral administration: […]
Compound,Reduction in Heart Rate (20 Minutes) After Application of the Compound (rats; 1.0 mg/kg i.v.) [Beats/Minutes],Reduction in Heart Rate (20 Minutes) After Application of the Compound (rats; 2.5 mg/kg i.v.) [Beats/Minutes],Reduction in Heart Rate (20 Minutes) After Application of the Compound (rats; 5.0 mg/kg i.v.) [Beats/Minutes],Reduction in Heart Rate (cats) [%],Half-life (cats) [h],also measured
"COc1cc2c(cc1OC)CC(=O)N(CCCN(C)CCc1ccccc1)CC2.Cl.Cl [R, 1-[7,8-Dimethoxy-1,3,4,5-tetrahydro-2H-3-benzazepin-2-on-3-yl]-3-[N-methyl-N-(2-phenyl-ethyl)-amino]-propane dihydrochloride]",-80,-110,-135,–,–,–
"COc1cc(CCCCCN(C)CCCN2CCc3cc(OC)c(OC)cc3CC2=O)cc(OC)c1 [S, 1-[7,8-Dimethoxy-1,3,4,5-tetrahydro-2H-3-benzazepin-2-on-3-yl]-3-[N-methyl-N-(5-{3,5-dimethoxy-phenyl}-pentyl)-amino]-propane]",–,–,-18,–,–,–
"COc1ccc(CCN(C)CCCN2CCc3cc(OC)c(OC)cc3CC2=O)cc1OC.Cl.Cl [A, 1-[7,8-Dimethoxy-1,3,4,5-tetrahydro-2H-3-benzazepin-2-on-3-yl]-3-[N-methyl-N-(2-{3,4-dimethoxy-phenyl}-ethyl)-amino]-propane dihydrochloride]",–,–,–,-55,2,LD50 at 336 h (Acute toxicity in mice; iv): 89 mg/kg; LD50 at 336 h (Acute toxicity in mice; po): 1350 mg/kg
"COc1ccc(CCNCCCN2CCc3cc(OC)c(OC)cc3CC2=O)cc1OC.Cl [E, 1-[7,8-Dimethoxy-1,3,4,5-tetrahydro-2H-3-benzazepin-2-on-3-yl]-3-[N-(2-{3,4-dimethoxy-phenyl}-ethyl)-amino]-propane hydrochloride]",–,–,–,-45,1.5,–
"COc1ccc(CCN(C)CCCN2CCc3cc(OC)c(OC)cc3NC2=O)cc1OC [D, 1-[7,8-Dimethoxy-1,3,4,5-tetrahydro-2H-1,3-benzodiazepin-2-on-3-yl]-3-[N-methyl-(2-{3,4-dimethoxy-phenyl}-ethyl)-amino]-propane]",–,–,–,-41,1.33,–
"COc1cc2c(cc1OC)CC(=O)N(CCCN(C)CCc1ccc(N)c([N+](=O)[O-])c1)CC2 [P, 1-[7,8-Dimethoxy-1,3,4,5-tetrahydro-2H-3-benzazepin-2-on-3-yl]-3-[N-methyl-N-(2-{4-aino-3-nitro-phenyl}-ethyl)-amino]-propane hydrochloride]",–,–,-130,–,–,–
"COc1ccc(C(O)CN(C)CCCN2CCc3cc(OC)c(OC)cc3CC2=O)cc1OC (stereo not shown) [N, 1-[7,8-Dimethoxy-1,3,4,5-tetrahydro-2H-3-benzazepin-2-on-3-yl]-3-[N-methyl-N-(2-hydroxy-2-{3,4-dimethoxyphenyl}-ethyl)-amino]-propane]",–,-137,-173,–,–,–
"COc1ccc(CCN(C)CCCN2C=Cc3cc(OC)c(OC)cc3CC2=O)cc1OC.Cl [B, 1-[7,8-Dimethoxy-1,3-dihydro-2H-3-benzazepin-2-on-3-yl]-3-[N-methyl-N-(2-{3,4-dimethoxy-phenyl}-ethyl)-amino]-propane hydrochloride]",–,–,–,-45,2,–
"COc1ccc(CCCN(C)CCCN2CCc3cc(OC)c(OC)cc3CC2=O)cc1OC.Cl [L, 1-[7,8-Dimethoxy-1,3,4,5-tetrahydro-2H-3-benzazepin-2-on-3-yl]-3-[N-methyl-N-(3-{3,4-dimethoxy-phenyl}-propyl)-amino]-propane hydrochloride]",-51,-85,-183,–,–,–
"COc1cc2c(cc1OC)CC(=O)N(CCCN(C)CCc1cc(Cl)c(N)c(Cl)c1)CC2 [F, 1-[7,8-Dimethoxy-1,3,4,5-tetrahydro-2H-3-benzazepin-2-on-3-yl]-3-[N-methyl-N-(2-{4-amino-3,5-dichloro-phenyl}-ethyl)-amino]-propane]",–,–,–,-51,2,–
"COc1cc2c(cc1OC)CC(=O)N(CCCN(C)CCCCc1ccc(N(C)C)cc1)CC2 [Q, 1-[7,8-Dimethoxy-1,3,4,5-tatrahydro-2H-3-benzazepin-2-on-3-yl]-3-N-methyl-N-(4-{4-dimethylaino-phenyl}butyl)-amino]-propane hydrobromide]",-94,-91,-123,–,–,–
COc1ccc(CCN(C)CCCN2CCc3cc(OC)c(OC)cc3C(O)C2=O)cc1OC (stereo not shown) [O],-83,-73,-117,–,–,–
"COc1ccc(CCN(C)CCCN2CCc3cc(OC)c(OC)cc3C(=O)C2=O)cc1OC [C, 1-[7,8-Dimethoxy-1,3,4,5-tetrahydro-2H-3-benzazepine-1,2-dion-3-yl]-3-[N-methyl-(2-}3,4-dimethoxy-phenyl}-ethyl)-amino]-propane hydrochloride]",–,–,–,-44,1.5,–
"COc1cc2c(cc1OC)CC(=O)N(CCCN(C)CCCc1cc(Cl)c(N)c(Cl)c1)CC2 [T, 1-[7,8-Dimethoxy-1,3,4,5-tetrahydro-2H-3-benzazepin-2-on-3-yl]-3-[N-methyl-N-(3-{4-amino-3,5-dichlorophenyl}-propyl)-amino]-propane]",–,–,-175,–,–,–
"COc1ccc(CCN(C)CCCN2CCc3cc(OC)c(OC)cc3CC2=S)cc1OC [M, 1-[7,8-Dimethoxy-1,3,4,5-tetrahydro-2H-3-benzazepin-2-thion-3-yl]-N-[N-methyl-N-(2-{3,4-dimethoxy-phenyl}-ethyl)-amino]-propane]",-73,-134,-255,–,–,–
"COc1ccc(CCN(C)CCCN2CCCc3cc(OC)c(OC)cc3C2=O)cc1OC [U, 1-[7,8-Dimethoxy-1,3,4,5-tetrahydro-5H-2-benzazepin-1-on-2-yl]-3-[N-methyl-N-(2-{3,4-dimethoxy-phenyl}-ethyl)-amino]-propane hydrochloride, reference compound]",–,–,-18,-8.2,0.217,–
